Measured values published in publication PMC9738591, “N-[1,3-Dialkyl(aryl)-2-oxoimidazolidin-4-ylidene]-aryl(alkyl)sulphonamides as Novel Selective Human Cannabinoid Type 2 Receptor (hCB2R) Ligands; Insights into the Mechanism of Receptor Activation/Deactivation” (Molecules, 2022).
Read-outs that look alike come from different tables or passages of the source.

Tests used:
human recombinant CB1R = molecular target: T1, human recombinant CB1R (Homo sapiens, UniProt P21554); assay: Competition binding assay, displacement of [3H]-CP-55,940 from membranes of HEK-293 cells overexpressing CB1R; details: for inhibition at 10 µM / inhibition at 25 µM: read-out: % Displacement/ Max. Conc. Tested, hCB1R
T1 construct: purchased Perkin-Elmer, Italy; host or cells: HEK-293 cells (membranes)
Description: (§1) The binding affinities (Ki values) of the compounds for human recombinant hCB1R and hCB2R were determined as previously described, using SR144528 as a reference compound [30], and are reported in Table 1.
(§2) Compound affinity for CB1R and CB2R was measured as previously reported. […] Competition curves were performed by displacing [^3H]-CP-55 940 with increasing concentrations of compounds (0.1 nM–10 or 25 μM). […] All compounds were tested following the procedure described by the manufacturer (Perkin-Elmer, Italy). Displacement curves were generated by incubating drugs with [^3H]-CP-55 940 for 90 min at 30 °C. Ki values were calculated by applying the Cheng−Prusoff equation to the IC50 values for the displacement of the bound radioligand by increasing concentrations of the test compound. Data represent the mean values of three independent experiments performed in duplicate and are expressed as the average of Ki (µM) ± standard deviation. Data were analyzed using PRISM.9.3 software (GraphPad Software Inc, San Diego, CA, USA).

human CB2R [1] = molecular target: T2, human CB2R (Homo sapiens, UniProt P34972); assay: cAMP Hunter assay, effect on NKH-477-induced cAMP levels (agonist mode); type: cell-based; details: for Effect on NKH-477-induced cAMP levels (functional behavior): CHO-K1 cells overexpressing human CB2R, compound alone
Description: The above-mentioned compounds were tested for their functional activity.
Gi-coupled cAMP modulation was measured following the manufacturer’s protocol (Eurofins, Fremont, CA, USA), as previously reported. Briefly, CHO-K1 cells overexpressing the human CB2R were plated into a 96-well plate (10,000 cells/well) and incubated overnight at 37 °C, 5% CO2. Media was aspirated and replaced with 30 μL of assay buffer. Cells were incubated for 30 min at 37 °C with 15 μL of 3× dose−response solutions of samples prepared in the presence of a cell assay buffer containing 3× of 25 μM NKH-477 solution to stimulate adenylate cyclase and enhance basal cAMP levels. For those compounds not showing a decrease in cAMP levels, the effect upon receptor activation in the presence of the JWH-133 selective agonist was investigated. Cells were pre-incubated with samples (15 min at 37 °C at 6× the final desired concentration), followed by 30 min incubation with the JWH-133 agonist challenge at the EC80 concentration (EC80 = 4 μM, previously determined in separate experiments) in the presence of NKH-477 to stimulate adenylate cyclase and enhance cAMP levels. Cell lysis and cAMP detection were performed as per the manufacturer’s protocol. Luminescence measurements were performed using a GloMax Multi Detection System (Promega, Italy). Data are reported as the means ± SEM of three independent experiments conducted in triplicate and were normalized considering the NKH-477 stimulus alone as 100% of the response. Data were analyzed using PRISM.9.3 software (GraphPad Software Inc, San Diego, CA, USA).
Figure 7 Concentration-response curves of compounds in the cAMP Hunter assay. Curves show the effect of increasing concentrations of compounds on NKH-477-induced cAMP levels in stable CHO cells expressing the human CB2. Data are reported as the means ± SEM of three independent experiments conducted in triplicate, normalized to the maximal and minimal responses.

human CB2R [2] = molecular target: T2, human CB2R; assay: Competition binding assay, displacement of [3H]-CP-55,940 from membranes of HEK-293 cells overexpressing CB2R; parameters: purchased Perkin-Elmer, Italy; host or cells: HEK-293 cells (membranes); details: for inhibition at 25 µM: max conc. tested 25 µM
Description: as §1, §2

human CB2R [3] = molecular target: T2, human CB2R; assay: cAMP Hunter assay in the presence of JWH-133 agonist challenge (antagonist mode); type: cell-based; details: for Antagonism of JWH-133-induced inhibition of NKH-477-induced cAMP formation: JWH-133 4 µM (EC80) agonist challenge
Description: (§3) Only a small displacement was observed and only at the highest concentration (Figure 8). We reasoned that the discrepancy with the predictions was mainly due to the chemical–physical features of the molecule and that the lack of antagonism was caused by issues related to compound solubility in the buffer used for the assay. Indeed, the maximum concentration of 12b that could be reached in the buffer solution used for the functional assay, measured by UV absorption as well as by HPLC, was 2.3 µM.

[4] = Maximum concentration reached in the functional assay buffer, by UV absorption and HPLC; type: physicochemical; details: measured by UV absorption and HPLC
Description: as §3

[5] = [3H]-CP-55,940 displacement, HEK-293 membranes, 90 min at 30 °C, Cheng-Prusoff, read-out: Ki hCB1R (µM ± S.E.)
[6] = stable CHO cells expressing the human CB2, read-out: EC50, reduction of NKH-477-induced cAMP levels
[7] = [3H]-CP-55,940 displacement, HEK-293 membranes, 90 min at 30 °C, Cheng-Prusoff, read-out: Ki hCB2R (µM ± S.E.)
[8] = read-out: % Displacement/ Max Conc. Tested, hCB2R (converted)
[9] = max conc. tested 10 µM, read-out: % Displacement/ Max Conc. Tested, hCB2R (converted)

T1 sequence (P21554 whole entry): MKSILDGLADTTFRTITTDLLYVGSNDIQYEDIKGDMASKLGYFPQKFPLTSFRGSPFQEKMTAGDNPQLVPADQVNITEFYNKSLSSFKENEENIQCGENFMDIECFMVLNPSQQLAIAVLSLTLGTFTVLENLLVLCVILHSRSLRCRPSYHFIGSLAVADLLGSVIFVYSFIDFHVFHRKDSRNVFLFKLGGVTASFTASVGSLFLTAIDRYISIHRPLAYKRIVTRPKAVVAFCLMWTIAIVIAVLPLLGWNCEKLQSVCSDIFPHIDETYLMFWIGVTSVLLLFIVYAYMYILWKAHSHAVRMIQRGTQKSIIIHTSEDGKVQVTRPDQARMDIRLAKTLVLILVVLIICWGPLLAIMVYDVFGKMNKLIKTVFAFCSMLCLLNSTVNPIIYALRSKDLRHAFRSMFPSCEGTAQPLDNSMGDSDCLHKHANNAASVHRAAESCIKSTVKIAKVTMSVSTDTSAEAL
T2 sequence (P34972 whole entry): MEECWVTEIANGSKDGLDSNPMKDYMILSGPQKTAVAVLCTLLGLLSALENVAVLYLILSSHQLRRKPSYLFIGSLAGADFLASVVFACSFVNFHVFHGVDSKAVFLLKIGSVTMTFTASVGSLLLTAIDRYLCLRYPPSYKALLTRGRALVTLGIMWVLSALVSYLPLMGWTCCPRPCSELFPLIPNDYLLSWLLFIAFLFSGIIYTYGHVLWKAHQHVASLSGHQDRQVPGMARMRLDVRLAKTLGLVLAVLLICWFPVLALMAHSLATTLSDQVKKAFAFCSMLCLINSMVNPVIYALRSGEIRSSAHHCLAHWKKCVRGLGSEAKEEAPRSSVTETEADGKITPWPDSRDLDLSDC

Structure (SMILES) | Ki (human recombinant CB1R; [5]) | inhibition at 10 µM (human recombinant CB1R) | Effect on NKH-477-induced cAMP levels (functional behavior) (human CB2R [1]) | EC50 (human CB2R [1]; [6]) | melting point | Ki (human CB2R [2]; [7]) | inhibition at 25 µM (human CB2R [2]; [8]) | inhibition at 10 µM (human CB2R [2]; [9]) | Ki (human recombinant CB1R) | EC50 (human CB2R [1]) | Ki (human CB2R [2]) | inhibition at 10 µM (human CB2R [2]; read-out: % Displacement/ Max Conc. Tested, hCB2R) | inhibition at 25 µM (human recombinant CB1R) | Antagonism of JWH-133-induced inhibition of NKH-477-induced cAMP formation (human CB2R [3]) | Maximum concentration that could be reached in the buffer solution used for the functional assay [4] | EC80 concentration of agonist challenge (human CB2R [3]; previously determined in separate experiments)
CC(C)(C)N1CC(=NS(=O)(=O)c2ccccc2)N(CC2CC2)C1=O [Compound 10b, N-[1-tert-Butyl-3-cyclopropylmethyl-2-oxoimidazolidin-4-ylidene]benzenesulfonamide] | > 10 µM | 10.5% | typical agonist behavior | 1260 nM | 114.5 to 115 °C | 1.67 ± 0.16 µM | 73% | – | – | – | – | – | – | – | – | –
CC(C)(C)N1CC(=NS(=O)(=O)c2cccc(Br)c2)N(CC2CC2)C1=O [Compound 10e, 3-Bromo-N-[1-tert-Butyl-3-cyclopropylmethyl-2-oxoimidazolidin-4-ylidene]benzenesulfonamide] | > 10 µM | 10.8% | typical agonist behavior | 264 nM | 114 to 115 °C | 0.34 ± 0.08 µM | – | 83.5% | – | – | – | – | – | – | – | –
CC(C)(C)N1CC(=NS(=O)(=O)c2cccc3ccccc23)N(CC2CC2)C1=O [Compound 10g, N-[1-tert-Butyl-3-cyclopropylmethyl-2-oxoimidazolidin-4-ylidene]naphthalene-1-sulfonamide] | – | 24.9% | typical agonist behavior | – | – | – | – | – | > 10 µM | 72 nM | 0.06 ± 0.01 µM | 95.7% | – | – | – | –
CS(=O)(=O)N=C1CN(C23CC4CC(CC(C4)C2)C3)C(=O)N1CC1CC1 [Compound 12a, N-[1-Adamant-1-yl-3-cyclopropylmethyl-2-oxoimidazolidin-4-ylidene]methanesulfonamide] | 0.21 ± 0.004 µM | – | typical agonist behavior | 2140 nM | 199.5 to 200 °C | 0.28 ± 0.05 µM | 76.5% | – | – | – | – | – | 76.5% | – | – | –
O=C1N(CC2CC2)C(=NS(=O)(=O)c2ccccc2)CN1C12CC3CC(CC(C3)C1)C2 [Compound 12b, N-[1-Adamant-1-yl-3-cyclopropylmethyl-2-oxoimidazolidin-4-ylidene]benzenesulfonamide] | > 10 µM | – | did not alter the level of cAMP | – | 198 to 198.5 °C | 0.26 ± 0.03 µM | 84.5% | – | – | – | – | – | 29.5% | did not antagonize the agonist challenge | 2.3 µM | –
O=C1N(CC2CC2)C(=NS(=O)(=O)c2cccc(Br)c2)CN1C12CC3CC(CC(C3)C1)C2 [Compound 12e, N-[1-Adamant-1-yl-3-cyclopropylmethyl-2-oxoimidazolidin-4-ylidene]-3-bromo-1-benzenesulfonamide] | > 10 µM | 5.07% | did not alter the level of cAMP | – | 138 to 138.5 °C | 0.16 ± 0.03 µM | – | 71.4% | – | – | – | – | – | fully antagonize | – | –
CCCC(C)(C)c1ccc2c(c1)OC(C)(C)[C@@H]1CC=C(C)C[C@@H]21 [JWH-133, reference compound] | – | – | – | – | – | – | – | – | – | – | – | – | – | – | – | 4000 nM
